According to patent publication US5866583A, “Substituted 2,4-diaminopyrimidines” (Hoffmann-La Roche Inc., priority 1996, dated 1999):

Key:
[1] = target: purified DHFR of the reference strain S. aureus ATCC 25923 (Staphylococcus aureus, UniProt P0A017); assay: Inhibition of purified DHFR of reference strain S. aureus ATCC 25923; type: biochemical
Excerpt: (§1) The inhibition of this enzyme was taken as a measurement of the antibacterial activity.

[2] = target: purified DHFR of the multiresistant strain S. aureus 157/4696 (Staphylococcus aureus, UniProt P13955); assay: Inhibition of purified DHFR of multiresistant strain S. aureus 157/4696; type: biochemical
Excerpt: as §1

[3] = target: T1, purified DHFR of the opportunistic pathogen P. carinii (Pneumocystis carinii, UniProt P16184); assay: biochemical; settings: IC50 determined by means of a graph
T1 sequence (P16184 1-206): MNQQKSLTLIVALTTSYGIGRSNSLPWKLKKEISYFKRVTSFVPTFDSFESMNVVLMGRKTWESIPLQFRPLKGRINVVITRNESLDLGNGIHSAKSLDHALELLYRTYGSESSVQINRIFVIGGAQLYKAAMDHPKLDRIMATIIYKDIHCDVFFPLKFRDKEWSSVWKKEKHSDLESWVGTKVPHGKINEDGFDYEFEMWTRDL
Excerpt: as §1

COc1cc(Cc2cnc(N)nc2N)cc(/C=C/C(=O)N2CCc3ccccc3C2c2ccccn2)c1OC (racemic) [Example 3, (E)-(RS)-3-[5-(2,4-Diamino-pyrimidin-5-ylmethyl)-2,3-dimethoxy-phenyl]-1-(1-pyridin-2-yl-3,4-dihydro-1H-isoquinolin-2-yl)-propenone]
IC50 [1]: 9 nM | IC50 [2]: 9.5 nM | IC50 [3]: 17000 nM

COc1ccc2c(c1)C(c1ccccn1)N(C(=O)/C=C/c1cc(Cc3cnc(N)nc3N)cc(OC)c1OC)CC2 (racemic) [Example 8, (E)-(RS)-3-[5-(2,4-Diamino-pyrimidin-5-ylmethyl)-2,3-dimethoxy-phenyl]-1-(7-methoxy-1-pyridin-2-yl-3,4-dihydro-1H-isoquinolin-2-yl)-propenone]
IC50 [1]: 5 nM | IC50 [2]: 9 nM | IC50 [3]: 5000 nM

COc1cc(Cc2cnc(N)nc2N)cc(/C=C/C(=O)N2CCc3ccccc3C2c2ccc(C)cc2)c1OC (racemic) [Example 16, (E)-(RS)-3-[5-(2,4-Diamino-pyrimidin-5-ylmethyl)-2,3-dimethoxy-phenyl]-1-[1-(4-methyl-phenyl)-3,4-dihydro-1H-isoquinolin-2-yl]-propenone]
IC50 [1]: 0.2 nM | IC50 [2]: 4.8 nM | IC50 [3]: 330 nM

COc1cc(Cc2cnc(N)nc2N)cc(/C=C/C(=O)N2CCc3ccccc3C2c2ccc(O)cc2)c1OC (racemic) [Example 21, (E)-(RS)-3-[5-(2,4-Diamino-pyrimidin-5-ylmethyl)-2,3-dimethoxy-phenyl]-1-[1-(4-hydroxy-phenyl)-3,4-dihydro-1H-isoquinolin-2-yl]-propenone]
IC50 [1]: 5.5 nM | IC50 [2]: 13 nM | IC50 [3]: 380 nM

COc1cc(Cc2cnc(N)nc2N)cc(/C=C/C(=O)N2CCc3ccccc3C2c2ccc(C#N)cc2)c1OC (racemic) [Example 23]
IC50 [1]: 0.5 nM | IC50 [2]: 0.9 nM | IC50 [3]: 10000 nM

COc1cc(Cc2cnc(N)nc2N)cc(/C=C/C(=O)N2CCc3ccccc3C2c2cccs2)c1OC (racemic) [Example 27, (E)-(RS)-3-[5-(2,4-Diamino-pyrimidin-5-ylmethyl)-2,3-dimethoxy-phenyl]-1-(1-thiophen-2-yl-3,4-dihydro-1H-isoquinolin-2-yl)-propenone]
IC50 [1]: 1.6 nM | IC50 [2]: 1.8 nM | IC50 [3]: 3800 nM

COc1cc(Cc2cnc(N)nc2N)cc(/C=C/C(=O)N2CCc3ccccc3C2c2ccc(C)nc2)c1OC (racemic) [Example 32, (E)-(RS)-3-[5-(2,4-Diamino-pyrimidin-5-ylmethyl)-2,3-dimethoxy-phenyl]-1-[1-(6-methyl-pyridin-3-yl)-3,4-dihydro-1H-isoquinolin-2-yl]-propenone]
IC50 [1]: 1.8 nM | IC50 [2]: 1.3 nM | IC50 [3]: 10000 nM

COc1cc(Cc2cnc(N)nc2N)cc(/C=C/C(=O)N2CCc3ccccc3C2c2ccc(Cl)cn2)c1OC (racemic) [Example 34, (E)-(RS)-1-[1-(5-Chloro-pyridin-2-yl)-3,4-dihydro-1H-isoquinolin-2-yl]-3-[5-(2,4-diamino-pyrimidin-5-ylmethyl)-2,3-dimethoxy-phenyl]-propenone]
IC50 [1]: 2.4 nM | IC50 [2]: 1.7 nM | IC50 [3]: 10000 nM

COc1cc(Cc2cnc(N)nc2N)cc(/C=C/C(=O)N2CCc3ccccc3C2c2ccc(Cl)nc2)c1OC (racemic) [Example 36, (E)-(RS)-1-[1-(6-Chloro-pyridin-3-yl)-3,4-dihydro-1H-isoquinolin-2-yl]-3-[5-(2,4-diamino-pyrimidin-5-ylmethyl)-2,3-dimethoxy-phenyl]-propenone]
IC50 [1]: 0.8 nM | IC50 [2]: 3 nM | IC50 [3]: 6200 nM

COc1cc(Cc2cnc(N)nc2N)cc(/C=C/C(=O)N2CCc3ccccc3C2c2ccc(C(N)=O)nc2)c1OC (racemic) [Example 39, (E)-(R,S)-5-[2-[3-[5-(2,4-Diamino-pyrimidin-5-ylmethyl)-2,3-dimethoxy-phenyl]-acryloyl]-1,2,3,4-tetrahydro-isoquinolin-1-yl]-pyridine-2-carboxamide]
IC50 [1]: 1.2 nM | IC50 [2]: 1.8 nM | IC50 [3]: 30000 nM

COc1cc(Cc2cnc(N)nc2N)cc(/C=C/C(=O)N2CCc3ccccc3C2c2ccc(S(C)(=O)=O)cc2)c1OC (racemic) [Example 40, (E)-(R,S)-3-[5-(2,4-Diamino-pyrimidin-5-ylmethyl)-2,3-dimethoxy-phenyl]-1-[1-(4-methanesulphonyl-phenyl)-3,4-dihydro-1H-isoquinolin-2-yl]-propenone]
IC50 [1]: 0.7 nM | IC50 [2]: 1.2 nM | IC50 [3]: 550 nM

COc1cc(Cc2cnc(N)nc2N)cc(/C=C/C(=O)N2CCc3ccccc3[C@@H]2c2ccccn2)c1OC [Example 1, (E)-(R)-3-[5-(2,4-diamino-pyrimidin-5-ylmethyl)-2,3-dimethoxy-phenyl]-1-(1-pyridin-2-yl-3,4-dihydro-1H-isoquinolin-2-yl)-propenone]
IC50 [1]: 5 nM | IC50 [2]: 8 nM | IC50 [3]: 8000 nM
